Assays:
[1] = biological target: T1, Angiotensin-converting enzyme (Oryctolagus cuniculus, UniProt P12822); assay type: tissue-based, Lung;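 note: enzymatic inhibition of angiotensin-converting enzyme measured with FAPGG as the substrate; in other assays of this panel Not Active means under 50% inhibition at 10 µM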
T1 sequence (P12822 whole entry): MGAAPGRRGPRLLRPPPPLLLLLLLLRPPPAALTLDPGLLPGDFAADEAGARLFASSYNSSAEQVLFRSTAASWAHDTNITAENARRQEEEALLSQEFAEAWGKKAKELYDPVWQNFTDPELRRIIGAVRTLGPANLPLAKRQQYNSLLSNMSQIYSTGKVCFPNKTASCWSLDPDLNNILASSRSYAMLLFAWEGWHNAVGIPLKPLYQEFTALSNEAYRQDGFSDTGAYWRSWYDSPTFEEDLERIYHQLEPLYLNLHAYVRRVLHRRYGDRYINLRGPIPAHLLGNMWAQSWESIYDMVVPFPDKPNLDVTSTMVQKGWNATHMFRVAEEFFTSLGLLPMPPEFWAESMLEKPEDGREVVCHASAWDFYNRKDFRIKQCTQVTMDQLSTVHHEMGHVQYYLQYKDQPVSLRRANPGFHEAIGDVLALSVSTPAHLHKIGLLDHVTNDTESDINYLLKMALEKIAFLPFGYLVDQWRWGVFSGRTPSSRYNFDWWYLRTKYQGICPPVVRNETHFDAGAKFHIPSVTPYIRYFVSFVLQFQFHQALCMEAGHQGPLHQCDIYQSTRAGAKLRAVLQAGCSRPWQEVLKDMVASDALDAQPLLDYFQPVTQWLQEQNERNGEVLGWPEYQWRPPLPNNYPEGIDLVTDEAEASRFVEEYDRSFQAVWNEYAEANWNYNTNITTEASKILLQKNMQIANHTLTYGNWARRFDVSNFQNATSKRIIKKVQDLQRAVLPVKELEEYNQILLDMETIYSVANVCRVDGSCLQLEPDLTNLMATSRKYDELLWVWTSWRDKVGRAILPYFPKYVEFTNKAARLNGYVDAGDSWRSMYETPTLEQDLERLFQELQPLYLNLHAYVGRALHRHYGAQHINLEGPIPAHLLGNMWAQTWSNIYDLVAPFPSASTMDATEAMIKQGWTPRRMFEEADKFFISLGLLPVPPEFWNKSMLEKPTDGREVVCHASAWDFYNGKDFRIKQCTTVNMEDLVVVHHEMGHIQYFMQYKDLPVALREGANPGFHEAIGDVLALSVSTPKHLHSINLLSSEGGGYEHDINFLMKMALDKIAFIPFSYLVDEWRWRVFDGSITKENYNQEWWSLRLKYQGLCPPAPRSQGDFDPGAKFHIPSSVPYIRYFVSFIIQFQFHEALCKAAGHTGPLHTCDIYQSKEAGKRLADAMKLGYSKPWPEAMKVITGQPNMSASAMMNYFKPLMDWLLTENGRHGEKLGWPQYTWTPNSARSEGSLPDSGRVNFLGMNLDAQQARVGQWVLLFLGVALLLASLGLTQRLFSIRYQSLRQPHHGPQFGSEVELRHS

[2] = biological target: T2, Type-2 angiotensin II receptor (Homo sapiens, UniProt P50052); assay type: cell-based; details: cho-k1; note: in other assays of this panel Not Active means under 50% inhibition at 10 µM
T2 sequence (P50052 whole entry): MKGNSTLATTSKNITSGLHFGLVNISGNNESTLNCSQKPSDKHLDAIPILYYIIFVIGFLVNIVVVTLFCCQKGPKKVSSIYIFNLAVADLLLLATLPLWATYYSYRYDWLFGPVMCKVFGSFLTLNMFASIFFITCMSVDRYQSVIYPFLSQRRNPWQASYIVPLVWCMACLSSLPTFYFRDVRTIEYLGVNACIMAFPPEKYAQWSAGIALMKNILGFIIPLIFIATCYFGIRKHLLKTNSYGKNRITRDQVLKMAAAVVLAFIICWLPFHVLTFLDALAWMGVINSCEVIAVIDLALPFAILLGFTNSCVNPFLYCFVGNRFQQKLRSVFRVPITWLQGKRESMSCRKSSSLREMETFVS

[3] = DRUGMATRIX: Phosphodiesterase PDE3 enzyme inhibition (substrate: [3H]cAMP + cAMP); assay type: tissue-based, Homo sapiens; details: platelet; Not Active = under 50% inhibition at 10 µM
Adenosine receptor A1 = biological target: T3, Adenosine receptor A1 (Homo sapiens, UniProt P30542); assay type: cell membranes, CHO, Membrane; details: cho;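 note: radioligand binding assay at the adenosine A1 receptor, with DPCPX serving as the labelled ligand; in other assays of this panel Not Active means under 50% inhibition at 10 µM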
T3 sequence (P30542 whole entry): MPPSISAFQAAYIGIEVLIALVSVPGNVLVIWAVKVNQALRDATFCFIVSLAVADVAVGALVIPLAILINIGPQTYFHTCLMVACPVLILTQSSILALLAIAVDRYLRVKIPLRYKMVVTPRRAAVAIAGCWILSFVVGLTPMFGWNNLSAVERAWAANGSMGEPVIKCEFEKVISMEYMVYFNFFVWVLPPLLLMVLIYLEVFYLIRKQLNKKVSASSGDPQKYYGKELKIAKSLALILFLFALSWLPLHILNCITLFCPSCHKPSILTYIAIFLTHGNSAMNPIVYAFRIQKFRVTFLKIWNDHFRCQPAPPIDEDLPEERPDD

[4] = biological target: Vascular endothelial growth factor receptor 1 (Homo sapiens, UniProt P17948); test: biochemical; assay type: cell-based, HUVEC; details: huvec; note: in other assays of this panel Not Active means under 50% inhibition at 10 µM
[5] = biological target: T4, C-X-C chemokine receptor type 1 (Homo sapiens, UniProt P25024); note: in other assays of this panel Not Active means under 50% inhibition at 10 µM
T4 sequence (P25024 whole entry): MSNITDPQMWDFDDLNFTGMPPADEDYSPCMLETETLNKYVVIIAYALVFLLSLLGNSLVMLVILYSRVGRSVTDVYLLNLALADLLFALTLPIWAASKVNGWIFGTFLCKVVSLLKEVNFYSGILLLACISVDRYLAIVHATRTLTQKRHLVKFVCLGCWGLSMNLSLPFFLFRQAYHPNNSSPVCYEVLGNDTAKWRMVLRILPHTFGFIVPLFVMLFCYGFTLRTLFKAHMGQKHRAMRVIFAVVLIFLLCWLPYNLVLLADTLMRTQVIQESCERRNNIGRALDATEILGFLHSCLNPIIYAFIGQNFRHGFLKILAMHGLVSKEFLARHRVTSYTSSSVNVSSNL

[6] = DRUGMATRIX: Serotonin (5-Hydroxytryptamine) 5-HT3 radioligand binding (ligand: [3H] GR-65630); assay type: cell membranes, Membrane; details: hek293; Not Active = under 50% inhibition at 10 µM

Chain of Vascular endothelial growth factor receptor 1 (P17948 whole entry): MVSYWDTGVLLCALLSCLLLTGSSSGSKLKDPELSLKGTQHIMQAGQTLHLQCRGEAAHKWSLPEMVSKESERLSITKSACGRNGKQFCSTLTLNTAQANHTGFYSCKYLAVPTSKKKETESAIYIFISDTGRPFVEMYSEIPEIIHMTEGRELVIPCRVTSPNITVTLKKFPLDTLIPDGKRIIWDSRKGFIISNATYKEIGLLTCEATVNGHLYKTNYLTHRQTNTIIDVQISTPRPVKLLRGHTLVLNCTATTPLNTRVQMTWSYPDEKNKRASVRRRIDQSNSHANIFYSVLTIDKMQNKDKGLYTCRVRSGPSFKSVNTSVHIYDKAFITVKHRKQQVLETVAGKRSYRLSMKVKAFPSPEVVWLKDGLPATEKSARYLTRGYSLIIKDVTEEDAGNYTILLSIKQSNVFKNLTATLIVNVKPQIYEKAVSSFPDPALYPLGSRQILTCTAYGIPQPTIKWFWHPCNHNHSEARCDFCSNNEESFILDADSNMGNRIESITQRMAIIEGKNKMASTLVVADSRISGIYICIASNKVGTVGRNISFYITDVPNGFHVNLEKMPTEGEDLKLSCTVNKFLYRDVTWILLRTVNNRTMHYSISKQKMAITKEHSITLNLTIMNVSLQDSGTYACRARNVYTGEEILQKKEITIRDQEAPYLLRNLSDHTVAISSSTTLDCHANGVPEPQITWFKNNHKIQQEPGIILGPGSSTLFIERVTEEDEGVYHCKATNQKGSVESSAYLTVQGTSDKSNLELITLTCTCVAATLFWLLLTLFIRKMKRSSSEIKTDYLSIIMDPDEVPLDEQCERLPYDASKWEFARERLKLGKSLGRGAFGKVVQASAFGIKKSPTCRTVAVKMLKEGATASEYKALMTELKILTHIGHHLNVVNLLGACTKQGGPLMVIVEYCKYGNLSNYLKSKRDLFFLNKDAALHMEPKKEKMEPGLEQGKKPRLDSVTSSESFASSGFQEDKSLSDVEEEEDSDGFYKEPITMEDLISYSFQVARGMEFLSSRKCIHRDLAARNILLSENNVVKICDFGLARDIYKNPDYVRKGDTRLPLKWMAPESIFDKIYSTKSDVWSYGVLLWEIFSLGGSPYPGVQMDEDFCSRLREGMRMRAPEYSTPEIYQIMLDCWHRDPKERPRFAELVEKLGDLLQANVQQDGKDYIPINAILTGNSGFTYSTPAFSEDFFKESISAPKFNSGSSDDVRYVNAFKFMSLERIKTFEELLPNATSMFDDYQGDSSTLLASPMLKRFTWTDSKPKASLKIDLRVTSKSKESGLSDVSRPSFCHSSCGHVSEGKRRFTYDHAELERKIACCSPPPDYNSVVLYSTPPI

NYSTATIN
Not Active: IC50 [1] | Ki [1] | IC50 [2] | Ki [2] | IC50 [3] | Ki [3] | IC50 (Adenosine receptor A1) | Ki (Adenosine receptor A1) | IC50 [4] | Ki [4] | IC50 [5] | Ki [5] | IC50 [6] | Ki [6]

Reference: ChEMBL document CHEMBL1909046, “DrugMatrix in vitro pharmacology data”
